Measured values taken from patent US10858367B2, “Compounds” (GLAXOSMITHKLINE INTELLECTUAL PROPERTY DEVELOPMENT LIMITED, priority 2017, dated 2020).

Target: T1, LRRK2 Ser935 phosphorylation in SH-SY5Y cells over-expressing recombinant full length LRRK2 (Homo sapiens, UniProt Q5S007)
T1 construct: A BacMam virus expressing full length recombinant LRRK2 was purchased from Invitrogen; host or cells: SH-SY5Y human neuroblastoma cells transduced with BacMam LRRK2 virus
Assay: Recombinant cellular LRRK2 AlphaScreen assay
Assay type: cell-based
Conditions: human neuroblastoma SH-SY5Y cells, BacMam full length LRRK2, 60 minutes with compound, read-out: pIC50 in the recombinant cellular LRRK2 AlphaScreen assay (converted)
Excerpt: b. Recombinant Cellular LRRK2 AlphaScreen Assay
To determine the activity of compounds against LRRK2 kinase activity in cells, the observed LRRK2 kinase-dependent modulation of LRRK2 Ser 935 phosphorylation (Dzamko et al., 2010, Biochem. J. 430: 405-413) was utilized to develop a quantitative 384 well plate-based immunoassay of LRRK2 Ser935 phosphorylation in the human neuroblastoma cell line SH-SY5Y, engineered to over-express recombinant full length LRRK2 protein.
A BacMam virus expressing full length recombinant LRRK2 was purchased from Invitrogen and amplified by inoculation of SF-9 cells at MOI 0.3 for 4-5 days in Sf-900 III SFM medium supplemented with 3% fetal bovine serum. Infected cell cultures were then centrifuged at 2000 g for 20 minutes, viral supernatant titer determined by anti-gp64 plaque assay and stored at 4° C.
Affinity-purified anti-phospho LRRK2 Ser935 sheep polyclonal antibody (Dzamko et al., 2010, Biochem. J. 430: 405-413) was biotinylated by standard methods (PerkinElmer). Anti-LRRK2 rabbit polyclonal antibody was purchased from Novus Biologicals. AlphaScreen Protein A IgG Kit (including acceptor and donor beads) was purchased from Perkin Elmer.
SH-SY5Y cells were grown in DMEM/F12 medium with 10% dialysed fetal bovine serum and harvested by treatment with 0.5% trypsin-EDTA for 5 minutes at 37° C. followed by centrifugation at 1000 rpm for 4 minutes. The cell pellet was resuspended in Opti-MEM reduced serum media (Invitrogen) at 200,000 cells/ml and mixed with the BacMam LRRK2 virus at MOI=50. 50 μl cell solutions were then dispensed to each well of a 384-well plate and incubated at 37° C., 5% CO2 for 24 hours.
Serial dilutions of test compounds were prepared in Opti-MEM reduced serum media (Invitrogen) and 5.6 ul transferred from compound plate to cell assay plate to achieve a top final assay concentration of 10 uM. DMSO was used in certain wells as controls. Cells were incubated at 37° C., 5% CO2 for 60 minutes. The medium was then removed and cells lysed by addition of 20 ul cell lysis buffer (Cell Signaling Technology) and incubation at 4° C. for 20 minutes. 10 ul of antibody/acceptor bead mix [(1/1000 biotinylated-pS935 LRRK2 antibody, 1/1000 total-LRRK2 antibody, 1/100 Acceptor beads in AlphaScreen detection buffer (25 mM Hepes (pH 7.4), 0.5% Triton X-100, 1 mg/ml Dextran 500 and 0.1% BSA)] was then added to each well and plates incubated for 2 hours at ambient temperature in the dark. 10 μl of donor beads solution (1/33.3 donor beads in AlphaScreen detection buffer) was then added to each well. Following incubation for a further 2 hours at ambient temperature in the dark, plates were read on an EnVision™ plate reader at emission 520-620 nm with excitation 680 nm. Dose response curve data was based on sigmoidal dose-response model.

T1 sequence (Q5S007 whole entry): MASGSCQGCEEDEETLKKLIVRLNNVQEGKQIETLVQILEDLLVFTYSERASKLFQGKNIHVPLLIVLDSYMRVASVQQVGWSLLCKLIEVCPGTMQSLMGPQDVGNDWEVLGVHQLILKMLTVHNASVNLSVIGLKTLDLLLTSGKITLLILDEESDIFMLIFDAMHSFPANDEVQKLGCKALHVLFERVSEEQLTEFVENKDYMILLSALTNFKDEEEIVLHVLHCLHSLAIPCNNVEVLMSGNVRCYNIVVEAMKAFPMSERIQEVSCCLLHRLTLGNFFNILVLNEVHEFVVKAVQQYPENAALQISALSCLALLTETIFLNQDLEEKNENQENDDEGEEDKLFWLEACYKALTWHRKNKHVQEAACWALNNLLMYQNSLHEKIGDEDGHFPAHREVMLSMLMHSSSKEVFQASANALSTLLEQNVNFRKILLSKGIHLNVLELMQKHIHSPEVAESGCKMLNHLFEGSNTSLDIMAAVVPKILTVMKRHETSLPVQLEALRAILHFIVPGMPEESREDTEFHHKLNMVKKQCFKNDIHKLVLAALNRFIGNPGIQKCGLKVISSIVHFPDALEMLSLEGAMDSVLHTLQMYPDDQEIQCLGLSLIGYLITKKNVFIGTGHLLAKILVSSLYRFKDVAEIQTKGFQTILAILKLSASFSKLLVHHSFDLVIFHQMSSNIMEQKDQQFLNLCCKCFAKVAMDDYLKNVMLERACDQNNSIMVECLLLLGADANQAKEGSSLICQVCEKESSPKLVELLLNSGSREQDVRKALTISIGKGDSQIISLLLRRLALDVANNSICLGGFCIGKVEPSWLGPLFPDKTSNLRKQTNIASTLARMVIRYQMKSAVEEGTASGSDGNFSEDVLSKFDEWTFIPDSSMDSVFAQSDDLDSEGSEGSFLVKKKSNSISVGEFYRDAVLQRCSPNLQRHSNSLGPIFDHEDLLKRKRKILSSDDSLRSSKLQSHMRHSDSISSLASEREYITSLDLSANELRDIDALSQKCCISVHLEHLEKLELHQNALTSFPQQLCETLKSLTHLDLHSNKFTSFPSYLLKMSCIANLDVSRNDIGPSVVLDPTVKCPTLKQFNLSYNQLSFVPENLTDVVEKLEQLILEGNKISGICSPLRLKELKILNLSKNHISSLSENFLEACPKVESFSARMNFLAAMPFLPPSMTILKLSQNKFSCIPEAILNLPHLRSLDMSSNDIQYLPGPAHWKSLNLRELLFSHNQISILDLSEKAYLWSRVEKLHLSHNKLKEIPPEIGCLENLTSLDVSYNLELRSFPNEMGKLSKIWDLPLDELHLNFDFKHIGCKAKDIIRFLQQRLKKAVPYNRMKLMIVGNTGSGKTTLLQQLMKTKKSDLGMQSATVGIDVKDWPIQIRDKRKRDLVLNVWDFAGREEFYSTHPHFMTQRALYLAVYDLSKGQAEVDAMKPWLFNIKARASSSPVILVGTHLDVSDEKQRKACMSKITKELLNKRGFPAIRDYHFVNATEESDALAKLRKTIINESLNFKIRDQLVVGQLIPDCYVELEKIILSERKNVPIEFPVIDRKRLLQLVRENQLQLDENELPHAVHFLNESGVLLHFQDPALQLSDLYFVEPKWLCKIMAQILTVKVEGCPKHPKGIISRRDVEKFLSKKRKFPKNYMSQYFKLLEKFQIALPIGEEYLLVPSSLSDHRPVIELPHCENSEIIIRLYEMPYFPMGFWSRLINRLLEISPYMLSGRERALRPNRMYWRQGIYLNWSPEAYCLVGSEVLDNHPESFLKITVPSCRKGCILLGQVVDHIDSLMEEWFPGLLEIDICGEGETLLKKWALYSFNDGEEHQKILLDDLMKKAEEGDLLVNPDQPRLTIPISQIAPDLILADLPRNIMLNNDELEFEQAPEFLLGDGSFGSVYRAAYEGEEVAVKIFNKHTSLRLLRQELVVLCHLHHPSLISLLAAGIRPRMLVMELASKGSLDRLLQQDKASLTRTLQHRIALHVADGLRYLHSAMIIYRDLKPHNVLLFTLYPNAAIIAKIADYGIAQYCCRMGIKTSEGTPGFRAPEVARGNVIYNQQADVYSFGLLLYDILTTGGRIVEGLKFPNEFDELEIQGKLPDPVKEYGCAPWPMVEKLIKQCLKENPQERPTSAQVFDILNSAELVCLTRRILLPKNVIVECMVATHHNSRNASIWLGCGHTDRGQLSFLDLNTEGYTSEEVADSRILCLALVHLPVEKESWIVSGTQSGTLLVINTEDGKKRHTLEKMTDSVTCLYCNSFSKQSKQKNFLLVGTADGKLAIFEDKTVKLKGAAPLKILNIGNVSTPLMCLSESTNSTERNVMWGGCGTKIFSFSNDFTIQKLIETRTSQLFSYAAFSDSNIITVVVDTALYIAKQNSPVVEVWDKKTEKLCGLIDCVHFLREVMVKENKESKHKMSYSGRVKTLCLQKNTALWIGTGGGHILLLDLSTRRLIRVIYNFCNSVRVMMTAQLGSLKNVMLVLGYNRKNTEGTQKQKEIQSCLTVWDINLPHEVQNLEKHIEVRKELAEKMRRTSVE

SMILES	IC50
Cc1nc(N2CC3CC(C2)O3)cc(-n2ncc3cc(C)c(C4CCN(C5COC5)CC4)cc32)n1 [Example E44, 3-(2-Methyl-6-(5-methyl-6-(1-(oxetan-3-yl)piperidin-4-yl)-1H-indazol-1-yl)pyrimidin-4-yl)-6-oxa-3-azabicyclo[3.1.1]heptane]	≤ 1000 nM
Cc1nc(N2CC3CC2CO3)cc(-n2ncc3cc(C)c([C@H]4CC[C@@](C)(O)CC4)cc32)n1 (single isomer, unassigned) [Example E9]	≤ 1000 nM
Cc1nc(N2C[C@H]3C[C@@H]2CO3)cc(-n2ncc3cc(C)c(C4C5CN(CCS(C)(=O)=O)CC54)cc32)n1 (stereo partly drawn) [Example E180, (1R,4R)-5-(2-methyl-6-(5-methyl-6-(3-(2-(methylsulfonyl)ethyl)-3-azabicyclo[3.1.0]hexan-6-yl)-1H-indazol-1-yl)pyrimidin-4-yl)-2-oxa-5-azabicyclo[2.2.1]heptane]	≤ 1000 nM
Cc1nc(N2CC3CC(C2)C3C(=O)O)cc(-n2ncc3cc(C)c([C@H]4CC[C@@](C)(O)CC4)cc32)n1 (single isomer, unassigned) [Example E77, Cis-3-{6-[6-(4-Hydroxy-4-methyl-cyclohexyl)-5-methyl-indazol-1-yl]-2-methyl-pyrimidin-4-yl}-3-aza-bicyclo[3.1.1]heptane-6-carboxylic Acid]	≤ 1000 nM
Cc1nc(N2C[C@H]3C[C@@H]2CO3)cc(-n2ncc3cc(Cl)c(N4CCC(C)(O)C4)cc32)n1 (single isomer, unassigned) [Example E49]	≤ 1000 nM
Cc1nc(N2C[C@@H]3C[C@H]2CN3C2COC2)cc(-n2ncc3cc(C)c([C@H]4CC[C@](C)(O)CC4)cc32)n1 [Example E32, Trans-1-methyl-4-(5-methyl-1-(2-methyl-6-((1S,4S)-5-(oxetan-3-yl)-2,5-diazabicyclo[2.2.1]heptan-2-yl)pyrimidin-4-yl)-1H-indazol-6-yl)cyclohexanol]	1860 nM
Cc1nc(N2C3COCC2COC3)cc(-n2ncc3cc(C)c(C4CCN(C5COC5)CC4)cc32)n1 [Example E46, 9-(2-methyl-6-(5-methyl-6-(1-(oxetan-3-yl)piperidin-4-yl)-1H-indazol-1-yl)pyrimidin-4-yl)-3,7-dioxa-9-azabicyclo[3.3.1]nonane]	≤ 1000 nM
COc1nc(N2CC3CC(C2)O3)cc(-n2ncc3cc(C)c(C4CCNCC4)cc32)n1 [Example E60, 3-(2-methoxy-6-(5-methyl-6-(piperidin-4-yl)-1H-indazol-1-yl)pyrimidin-4-yl)-6-oxa-3-azabicyclo[3.1.1]heptane 2,2,2-trifluoroacetate]	≤ 1000 nM
Cc1nc(N2CC3CC(C2)O3)cc(-n2ncc3cc(C)c(C4CCNCC4)cc32)n1 [Example E61, 3-(2-methyl-6-(5-methyl-6-(piperidin-4-yl)-1H-indazol-1-yl)pyrimidin-4-yl)-6-oxa-3-azabicyclo[3.1.1]heptane 2,2,2-trifluoroacetate]	≤ 1000 nM
Cc1nc(N2C[C@@]3(CO)C[C@@H]2CO3)cc(-n2ncc3cc(C)c(C4CCOCC4O)cc32)n1 (single isomer, unassigned) [Example E168, 4-(1-(6-(1-(hydroxymethyl)-2-oxa-5-azabicyclo[2.2.1]heptan-5-yl)-2-methylpyrimidin-4-yl)-5-methyl-1H-indazol-6-yl)tetrahydro-2H-pyran-3-ol]	≤ 1000 nM
Cc1nc(N2CC3CCC(C2)O3)cc(-n2ncc3cc(C)c(C4CCNCC4)cc32)n1 [Example E63, 3-(2-methyl-6-(5-methyl-6-(piperidin-4-yl)-1H-indazol-1-yl)pyrimidin-4-yl)-8-oxa-3-azabicyclo[3.2.1]octane 2,2,2-trifluoroacetate]	≤ 1000 nM

Next, values leading:

IC50	SMILES
≤ 1000 nM	COc1nc(N2CC3CCC2CO3)cc(-n2ncc3cc(C)c(C4CCN(C5CCOC5)CC4)cc32)n1 (single isomer, unassigned) [Example E64, 5-(2-methoxy-6-(5-methyl-6-(1-(tetrahydrofuran-3-yl)piperidin-4-yl)-1H-indazol-1-yl)pyrimidin-4-yl)-2-oxa-5-azabicyclo[2.2.2]octane]
≤ 1000 nM	COc1nc(N2CC3CC2CO3)cc(-n2ncc3cc(C)c(C4CCN(C5COC5)CC4O)cc32)n1 (single isomer, unassigned) [Example E132]
≤ 1000 nM	Cc1nc(N2C[C@@H]3C[C@H]2CO3)cc(-n2ncc3cc(C)c(C4CCN(CCC(=O)O)CC4F)cc32)n1 (single isomer, unassigned) [Example E157]
≤ 1000 nM	[2H]C1(N2CCC(c3cc4c(cnn4-c4cc(N5C[C@@H]6C[C@H]5CO6)nc(OC)n4)cc3C)CC2)COC1 [Example E57, (1S,4S)-5-(6-(6-(1-(3-deuterooxetan-3-yl)piperidin-4-yl)-5-methyl-1H-indazol-1-yl)-2-methoxypyrimidin-4-yl)-2-oxa-5-azabicyclo[2.2.1]heptane]
≤ 1000 nM	Cc1nc(N2CC3CC2CO3)cc(-n2ncc3cc(C)c([C@H]4CC[C@](C)(O)CC4)cc32)n1 (single isomer, unassigned) [Example E10]
≤ 1000 nM	COc1nc(N2C[C@@H]3C[C@H]2CO3)cc(-n2ncc3cc(C)c(C4CCN(CCC(=O)O)CC4)cc32)n1 [Example E165, 3-(4-(1-(6-((1S,4S)-2-oxa-5-azabicyclo[2.2.1]heptan-5-yl)-2-methoxypyrimidin-4-yl)-5-methyl-1H-indazol-6-yl)piperidin-1-yl)propanoic Acid]
≤ 1000 nM	COc1nc(N2C[C@@H]3C[C@H]2CO3)cc(-n2ncc3cc(C)c(C4CCN(CCO)CC4)cc32)n1 [Example E28, 2-(4-(1-(6-((1S,4S)-2-oxa-5-azabicyclo[2.2.1]heptan-5-yl)-2-methoxypyrimidin-4-yl)-5-methyl-1H-indazol-6-yl)piperidin-1-yl)ethanol]
≤ 1000 nM	COc1nc(N2C[C@@H]3C[C@H]2CO3)cc(-n2ncc3cc(C)c(C4CCN(CCF)CC4)cc32)n1 [Example E38, (1S,4S)-5-(6-(6-(1-(2-fluoroethyl)piperidin-4-yl)-5-methyl-1H-indazol-1-yl)-2-methoxypyrimidin-4-yl)-2-oxa-5-azabicyclo[2.2.1]heptane]
≤ 10 nM	[2H]C1(N2CCC(c3cc4c(cnn4-c4cc(N5C[C@H]6C[C@@H]5CO6)nc(OC)n4)cc3C)CC2)COC1 [Example E56, (1R,4R)-5-(6-(6-(1-(3-deuterooxetan-3-yl)piperidin-4-yl)-5-methyl-1H-indazol-1-yl)-2-methoxypyrimidin-4-yl)-2-oxa-5-azabicyclo[2.2.1]heptane]
≤ 1000 nM	COc1nc(N2C[C@@H]3C[C@H]2CO3)cc(-n2ncc3cc(Cl)c(C4CCN(C5COC5)CC4)cc32)n1 [Example E6, (1S,4S)-5-(6-(5-chloro-6-(1-(oxetan-3-yl)piperidin-4-yl)-1H-indazol-1-yl)-2-methoxypyrimidin-4-yl)-2-oxa-5-azabicyclo[2.2.1]heptane]
≤ 1000 nM	Cc1nc(N2C[C@H]3C[C@@H]2CO3)cc(-n2ncc3cc(C)c(C4CCN(CCC(=O)O)CC4F)cc32)n1 (single isomer, unassigned) [Example E155]
≤ 1000 nM	Cc1nc(N2CC3CC2CO3)cc(-n2ncc3cc(C)c(C4CCN(C5COC5)CC4O)cc32)n1 (single isomer, unassigned) [Example E141]
≤ 1000 nM	COc1nc(N2C[C@H]3C[C@@H]2CO3)cc(-n2ncc3cc(Cl)c(C4CCN(C5CCOC5)CC4)cc32)n1 (single isomer, unassigned) [Example E67]
≤ 10 nM	COc1nc(N2C[C@H]3C[C@@H]2CO3)cc(-n2ncc3cc(Cl)c(C4CCN(C5COC5)CC4)cc32)n1 [Example E5, (1R,4R)-5-(6-(5-chloro-6-(1-(oxetan-3-yl)piperidin-4-yl)-1H-indazol-1-yl)-2-methoxypyrimidin-4-yl)-2-oxa-5-azabicyclo[2.2.1]heptane]
≤ 1000 nM	COc1nc(N2C[C@@H]3C[C@H]2CO3)cc(-n2ncc3cc(C)c(C4CCN(CCO)CC4F)cc32)n1 (single isomer, unassigned) [Example E19]
